Key:
[1] = tested on: ovarian and breast cancer; conditions: cited from earlier work
[2] = cited from earlier work
TS = conditions: cited from earlier work
[3] = tested on: L1210 murine leukemia cell line; assay: growth inhibition of L1210 murine leukemia cell line in vitro; assay type: cell-based; conditions: Mus musculus, L1210, 72 h
Description: The compounds of formula I were also tested against the L1210 murine leukemia cell line in vitro.
A cell culture of the L1210 murine leukemia cell line is grown in RPMI 1640 culture medium supplemented with 5% fetal bovine serum containing gentamicin (50 micrograms per milliliter). Dilutions of the test compound are prepared in the appropriate solvent and 20 microliters of each dilution are added to a 24-well Linbro tissue culture plate, followed by the addition of 2.0 ml of cell suspension containing 3×10^4 cells/milliliter. Solvent and medium controls are included in each test.
After incubation at 37° C. for three days in 5% CO2, the contents of each well are removed and the cells are counted in a ZBI Coulter counter.

[4] = biological target: T1, Thymidylate synthase isolated from L1210 murine leukemia cells (Mus musculus, UniProt P07607); assay: inhibition of thymidylate synthase (tritium release assay); assay type: biochemical; conditions: 50 μ molar deoxyuridine, 100 μmolar 5,10-methylene-tetrahydrofolate
T1 construct: endogenous in cells
Description: The compounds of formula I are valuable anticancer agents. The tests employed indicate that compounds of formula I inhibit the enzyme thymidylate synthase. Thymidylate synthase catalyzes the methylation of deoxyuridine monophosphate to thymidine monophosphate and therefore plays a key role in the synthesis of the only nucleotide required exclusively for deoxyribonucleic acid (DNA) synthesis. […] Thus, the compounds of formula I were tested for their ability to inhibit thymidylate synthase. […] Inhibition of thymidylate synthetase by the new quinazoline antifolate CB3717: enzyme purification and kinetics. In: […]., Simmonds, H. A., Muller, M. M. (eds.) "Purine metabolism in man, IV part B. Biochemical, immunological and cancer research." Plenum Publishing Corp., New York, 1984, pp. 375-378. Thymidylate synthase enzyme activity was determined by the tritium release assay method described by Roberts, Biochemistry, 5:3546-3548 (1966).

[5] = tested on: cells made resistant to the classical DHFR inhibitor methotrexate; conditions: cited from earlier work

T1 sequence (P07607 whole entry): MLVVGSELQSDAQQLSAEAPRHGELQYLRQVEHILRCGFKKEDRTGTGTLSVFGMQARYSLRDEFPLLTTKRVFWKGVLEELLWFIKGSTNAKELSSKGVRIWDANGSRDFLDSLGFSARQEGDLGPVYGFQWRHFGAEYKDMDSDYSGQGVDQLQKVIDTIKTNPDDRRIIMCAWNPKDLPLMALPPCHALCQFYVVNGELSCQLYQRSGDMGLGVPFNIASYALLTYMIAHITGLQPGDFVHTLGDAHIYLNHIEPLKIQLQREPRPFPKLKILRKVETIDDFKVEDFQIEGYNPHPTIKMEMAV

Compound	IC50 [3]	IC50 [4]	also measured
C#CCN(Cc1ccc2nc(N)nc(O)c2c1)c1ccc(C(=O)N[C@@H](CCC(=O)O)C(=O)O)cc1 [CB 3717, N-(4(N-((2-amino-4-hydroxy-6-quinazolinyl)methyl)prop-2-ynylamino)benzoyl)-L-glutamic acid]	–	–	liver toxicity ([1]; Phase I clinical trials): nondose related liver toxicity; kidney toxicity ([1]; Phase I clinical trials, due in part to poor solubility): dose limiting kidney toxicity; clinical responses ([1]; Phase I, patients with ovarian and breast cancer): Minor and partial clinical responses; solubility [2]: poor solubility; TS inhibition (in words) (TS; background): selective, tight binding TS inhibitor
C#CCN(Cc1ccc2nc[nH]c(=O)c2c1)c1ccc(C(C)=O)cc1 [Example 2, 6-[[(4-Acetylphenyl)-2-propynylamino]methyl]-4(3H)-quinazolinone]	7 µM	2.4 µM	–
C#CCN(Cc1ccc2nc[nH]c(=O)c2c1)c1ccc(Cl)c(Cl)c1 [Example 2a, 6-[[(3,4-Dichlorophenyl)-2-propynylamino]methyl]-4(3H)-quinazolinone]	4 µM	11 µM	–
C#CCN(Cc1ccc2nc[nH]c(=O)c2c1)c1cc(OC)c(OC)c(OC)c1 [Example 2c, 6-[[2-Propynyl-(3,4,5-trimethoxyphenyl)amino]methyl]-4(3H)-quinazolinone]	> 10 µM	96 µM	–
C#CCN(Cc1ccc2nc(N)[nH]c(=O)c2c1)c1ccc(C(N)=O)cc1 [Example 2d, 4-[[(2-Amino-3,4-dihydro-4-oxo-6-quinazolinyl)methyl]-2-propynylamino]benzamide]	> 20 µM	0.64 µM	–
C#CCN(Cc1ccc2nc(N)[nH]c(=O)c2c1)c1ccc(C#N)cc1 [Example 2e, 4-[[(2-Amino-3,4-dihydro-4-oxo-6-quinazolinyl)methyl]-2-propynylamino]benzonitrile]	5.9 µM	1.3 µM	–
C#CCN(Cc1ccc2nc(N)[nH]c(=O)c2c1)c1ccc(F)cc1 [Example 2f, 2-Amino-6-[[(4-fluorophenyl)-2-propynylamino]methyl]-4(3H)-quinazolinone]	–	11.5 µM	–
C#CCN(Cc1ccc2nc(N)nc(O)c2c1)c1ccc(Cl)c(Cl)c1 [Example 2g, 2-Amino-6-[[(3,4-Dichlorophenyl)-2-propynylamino]methyl]-4(3H)-quinazolinone]	12.6 µM	5 µM	–
C#CCN(Cc1ccc2nc(N)[nH]c(=O)c2c1)c1ccc(OC(F)(F)F)cc1 [Example 2h, 2-Amino-6-[[2-propynyl[4-(trifluoromethoxy)phenyl]amino]methyl]-4(3H)-quinazolinone]	25.1 µM	11.3 µM	–
C#CCN(Cc1ccc2nc(N)[nH]c(=O)c2c1)c1ccc([N+](=O)[O-])cc1 [Example 2i, 2-Amino-6-[[(4-nitrophenyl)-2-propynylamino]methyl]-4(3H)-quinazolinone]	2.4 µM	0.62 µM	–
C#CCN(Cc1ccc2nc(N)[nH]c(=O)c2c1)c1ccc(C(C)=O)cc1 [Example 2j, 6-[[(4-Acetylphenyl)-2-propynylamino]methyl]-2-amino-4(3H)-quinazolinone]	4.3 µM	0.77 µM	–
C#CCN(Cc1ccc2nc(N)[nH]c(=O)c2c1)c1ccc(C(=O)C(F)(F)F)cc1 [Example 2k, 2-Amino-6-[[2-propynyl[4-(trifluoroacetyl)phenyl]amino]methyl]-4(3H)-quinazolinone]	11.8 µM	0.51 µM	–
C#CCN(Cc1ccc2nc(N)nc(O)c2c1)c1cc(OC)c(OC)c(OC)c1 [Example 2l, 2-Amino-6-[[2-propynyl(3,4,5-trimethoxyphenyl)amino]methyl]-4(3H)-quinazolinone]	> 20 µM	50 µM	–
C#CCN(Cc1ccc2nc(N)[nH]c(=O)c2c1)c1ccc(S(=O)(=O)N(C)C)cc1 [Example 2n, 4-[[(2-Amino-3,4-dihydro-4-oxo-6-quinazolinyl)methyl]-2-propynylamino]-N,N-dimethylbenzenesulfonamide]	4.1 µM	1 µM	–
C#CCN(Cc1ccc2nc(N)[nH]c(=O)c2c1)c1ccc(C(=O)O)cc1 [formula A; R=OH]	–	–	decrease of TS inhibition over the classical antifolate analog on removal of the glutamate residue (TS; Jones et al, J. Med. Chem. 29, 1114-1118 (1986)): 84 fold
COc1cc(NCc2ccc3nc(N)nc(N)c3c2C)cc(OC)c1OC [trimetrexate]	–	–	circumvention of impaired transport resistance [5]: shown to circumvent the impaired transport

Reference: patent publication US4857530A, “Substituted quinazolinones as anticancer agents” (Warner-Lambert Company, priority 1987, dated 1989)
